Measured values as given in patent US8735444B2, “Fluorinated rhodamines as photostable fluorescent dyes for labelling and imaging techniques” (Max-Planck-Gesellschaft zur Foerderung der Wissenschaften …, priority 2009, dated 2014).
Marks after values point to notes of the source that are not given here.

Key:
[1] = Spectral properties of the fluorinated rhodamines (absorption, emission, quantum yield, lifetime); format: physicochemical
Source text: Extinction coefficients (of the long wavelength maximum) which are lower than ca. 8×10^4 M^−1 cm^−1 indicate the presence of the closed non-fluorescent form.

[2] = system: living mammalian cells (PtK2); assay: Membrane-permeation experiments in living cells, epifluorescence microscope; format: cell-based; conditions: 15 minutes
Protocol: FIG. 9. Membrane-permeation experiments of the presented dyes. Living mammalian cells (PtK2) were incubated for 15 minutes with a 50 μg dye/ml solution. The subcellular localization of the dye was imaged in an epifluorescence microscope. A: 46-H—CH2 CF3—H—H (16); B: 42-COOH (15); C: 23; D: 37-Me-Me-H (27); E: 42-H (14)-methylester; F: 33-H—H (18).
The most important prerequisite for fluorophores used in these labeling strategies is that sufficient amounts of it need to pass cellular membrane(s) to reach the target protein. In order to asses the permeability of the cell membrane to the fluorescent dyes described in the presented invention, living mammalian cells (PtK2) previously grown overnight on cover slips, were first subjected to either 500 μg dye/ml or 50 μg dye/ml in growth medium for 15 minutes. (The amount of dye used for labeling of SNAP-fusion proteins is below 5 μg dye/ml.) Then, the cells were washed with growth medium (without dye) for 15 minutes, and imaged using an epifluorescence microscope.

[3] = Ground state depletion (GSDIM) pump-probe measurements in PVA matrix; format: physicochemical; conditions: for λem / λex: PVA matrix table; for Γfl, remaining fluorescence after 5 measurement cycles / Rfl, t=0, residual fluorescence after the pump-pulse: PVA matrix; for Γfl, remaining fluorescence after 5 measurement cycles: at one spot with the given power density; for Rfl, t=0, residual fluorescence after the pump-pulse: pump-pulse power density per dye 14-110 kW/cm^2
Source text: In this method, “off” and “on” switching of the fluorescence is achieved by transiently shelving the fluorophores into a meta-stable dark state. Upon the return of only a few isolated single molecules to the fluorescent singlet state, positions of these single light emitting spots can be imaged on a camera and localized with high precision. Upon repeating this procedure and acquiring many pictures, a super-resolution image can be reconstructed from the localized positions. A prerequisite of this method is that >70% of the ensemble of the applied fluorescent dyes can be shelved into a dark state at a time (to ensure the detection of isolated fluorescent spots at a time in a densely labeled sample) and that the fluorophores are bright enough, i.e., that they emit enough photons while being in the singlet on-state (to ensure high precision of localization).
Switching off of the laser leads to a recovery of the fluorescence ensemble within a characteristic recovery time of 150-450 ms (Table 5), indicating the shelving into a metastable dark state. The measurements were performed in a pump-probe mode, i.e., the residual level of fluorescence was probed with I<100 W/cm^2 for 0.5 ms after strong irradiation for 10 ms with the given laser intensity in Table 5.
Furthermore, recovery of the fluorescence can be accelerated by addition of UV light, which leads to an optically-induced depopulation of the dark states. Already 2-3 kW/cm^2 of 375 nm light recovers the fluorescence within an irradiation period of 0.5 ms. […] The accelerated recovery is important for samples with low density of labels, where the addition of UV light and thus acceleration of the return from a dark state helps to accelerate image acquisition. Photostabilities of the studied fluorescent dyes under the GSDIM conditions are different: 15-50 pump-probe cycles with a pump intensity of 14-110 kW/cm^2 bleach 30-95% of the whole ensemble.

[4] = Photoresistance in aqueous solutions irradiated with 488 nm light (3 W/cm^2); format: physicochemical; conditions: for change in emission on irradiation: colored water solutions, several hours, 488 nm line of an Argon laser
Source text: The compounds also display an outstanding photostability when irradiated for a prolonged time. […] The initial absorption at the irradiation wavelength was the same for all solutions. […] After two hours of irradiation, compounds 14 and 15 retain more than 50% of the initial emission intensity and compound 14a has about 90% of the initial signal left.
FIG. 2. Photoresistance of selected compounds (14-17, 14a, and 16a in Table 2), and some commercially available fluorophores with the similar spectral properties (Alexa Fluor 488®, Rhodamine Green®, Oregon Green 488®, and Fluorescein) in aqueous solutions irradiated with 488 nm light (3 W/cm^2)

[5] = Fluorescence correlation spectroscopy (FCS) in aqueous solutions; format: physicochemical; conditions: aqueous solution, intensity range 0.1-2.0 MW/cm^2
Source text: FIG. 10. FCS curves obtained from Rh110-CO2 (left plot) and compound 17 (right plot), at low (0.1 MW/cm^2) and high (2 MW/cm^2) excitation intensity (dots: experimental data; lines: best fits).
In combination with modern highly sensitive detection technologies recently developed, the observation of a single or a few molecules has become readily available. Several techniques based on these measurements [such as the fluorescence fluctuation spectroscopy and fluorescence correlation spectroscopy (FCS)] advantageously reveal molecular properties otherwise hidden by averaging the ensemble. A common requirement for experiments involving a few or single molecules is the use of fluorescent dyes with high photostability especially at high excitation intensities of >100 kW/cm^2. For biological applications the use of water as a solvent is almost imperative. Low solubility in water is often associated with a high bleaching ratio, or lower fluorescence quantum yield in aqueous medium compared with that in organic solvents. […]
The excitation intensity of 115 kW/cm^2 (a value normally used in routinely FCS measurements) and at an excitation intensity of about an order of magnitude higher (2 MW/cm^2) have been used. […] An increase in the fraction of molecules in the triplet state can also be detected. […]

[6] = cited from earlier work; for Photobleaching quantum yields: in water, low light intensities (up to 10^3 W/cm^2)

Compound	ABSORPTION ε ([1]; aqueous buffer at pH 7) [M⁻¹ cm⁻¹]	ABSORPTION λMAX ([1]; aqueous buffer at pH 7)	EMISSION λMAX ([1]; aqueous buffer at pH 7)	ΦFL ([1]; aqueous buffer at pH 7)	τFL ([1]; aqueous buffer at pH 7) [ns]	λem [3] [nm]	λex [3] [nm]	Γfl, remaining fluorescence after 5 measurement cycles [3] [%]	Rfl, t=0, residual fluorescence after the pump-pulse [3] [%]	ABSORPTION ε ([1]; methanol) [M⁻¹ cm⁻¹]	ABSORPTION λMAX ([1]; methanol)	EMISSION λMAX ([1]; methanol)	initial emission intensity retained ([4]; after two hours of irradiation, 488 nm, 3 W/cm^2)	Structures stained in living cells ([2]; 50 μg dye/ml)	Structures stained in living cells ([2]; 500 μg dye/ml)	change in emission on irradiation [4]	change of diffusion time with excitation intensity (bleaching) [5]	Photobleaching quantum yields [6]	stability relative to rhodamine 6G ([6]; high light intensities (up to 10^7 W/cm^2))
Nc1c(F)cc2c(c1S(=O)(=O)O)Oc1c(cc(F)c(N)c1S(=O)(=O)O)C21OC(=O)c2ccccc21 [Compound 12, 2,7-Difluoro-4,5-disulforhodamine]	–	488 nm	512 nm	0.89	4.0	512	488	20	8	42000	498 nm	514 nm	–	–	Nearly no stain visible.	–	–	–	–
CN(CCC(=O)O)C(=O)c1ccccc1-c1c2ccc(=NCC(F)(F)F)cc-2oc2cc(NCC(F)(F)F)ccc12.Cl [Compound 14a]	57000	510 nm	531 nm	0.86	4.2	–	–	–	–	–	512 nm	534 nm	about 90%	–	Mitochondrial stain visible.	–	–	–	–
CN(CCC(=O)O)C(=O)c1ccccc1-c1c2ccc(=NCC(F)(F)F)c(S(=O)(=O)O)c-2oc2c(S(=O)(=O)O)c(NCC(F)(F)F)ccc12 [Compound 16a]	–	512 nm	530 nm	0.86	4.1	530	512	35	25	74000	517 nm	536 nm	–	–	Cellular stain visible; bright	without any significant changes in their emission	–	–	–
COC(=O)c1ccccc1-c1c2ccc(N)cc2[o+]c2cc(N)ccc12 [methyl ester of rhodamine 110]	–	–	–	–	–	–	–	–	–	–	–	–	–	–	–	–	–	6.6 ×10^−7	–
CCN=c1cc2oc3cc(NCC)c(C)cc3c(-c3ccccc3C(=O)OCC)c-2cc1C.Cl [rhodamine 6G]	–	–	–	–	–	–	–	–	–	–	–	–	–	–	–	–	–	12 ×10^−7	–
CN(C)c1ccc2c(-c3ccccc3C(=O)[O-])c3ccc(N(C)C)cc3[o+]c2c1 [tetramethyl rhodamine]	–	–	–	–	–	–	–	–	–	–	–	–	–	–	–	–	–	3.3 ×10^−7	4-5 times
carboxy rhodamine 110 [Rh110-CO2, reference compound]	–	–	–	–	–	–	–	–	–	–	–	–	–	–	–	–	shortening of the apparent diffusion characteristic time	–	–

The next lines start with results.

ABSORPTION ε ([1]; aqueous buffer at pH 7) [M⁻¹ cm⁻¹]	ABSORPTION λMAX ([1]; aqueous buffer at pH 7)	EMISSION λMAX ([1]; aqueous buffer at pH 7)	ΦFL ([1]; aqueous buffer at pH 7)	τFL ([1]; aqueous buffer at pH 7) [ns]	λem [3] [nm]	λex [3] [nm]	Γfl, remaining fluorescence after 5 measurement cycles [3] [%]	Rfl, t=0, residual fluorescence after the pump-pulse [3] [%]	ABSORPTION ε ([1]; methanol) [M⁻¹ cm⁻¹]	ABSORPTION λMAX ([1]; methanol)	EMISSION λMAX ([1]; methanol)	initial emission intensity retained ([4]; after two hours of irradiation, 488 nm, 3 W/cm^2)	Compound	Structures stained in living cells ([2]; 50 μg dye/ml)	Structures stained in living cells ([2]; 500 μg dye/ml)	change in emission on irradiation [4]	change of diffusion time with excitation intensity (bleaching) [5]	Photobleaching quantum yields [6]	stability relative to rhodamine 6G ([6]; high light intensities (up to 10^7 W/cm^2))
54000	506^a nm	531^a nm	0.66	3.2	531	506	50	25	–	–	–	–	2,7-Difluoro-N,N′-bis(2,2,2-trifluoroethyl)-4,5-disulforhodamine [Compound 20]	Dim cytoplasmatic stain with dots	Nearly no stain visible.	–	–	–	–
–	499 nm	520 nm	0.88	3.8	–	–	–	–	87000	507 nm	524 nm	–	O=C(O)c1ccccc1-c1c2ccc(=NCC(F)(F)F)c(S(=O)(=O)O)c-2oc2c(S(=O)(=O)O)c(NCC(F)(F)F)ccc12 [Compound 16, 4,5-Disulfo-N,N′-bis(2,2,2-trifluoroethyl)rhodamine]	Dim cytoplasmatic stain with bright	Dim cellular stain with brightly	without any significant changes in their emission	–	–	–
–	501 nm	524^a, 524^b nm	0.96	3.9	524	501	40	25	86000	511 nm	524^a, 524^b nm	–	O=C(O)c1ccc2c(c1)C(=O)OC21c2ccc(NCC(F)(F)F)c(S(=O)(=O)O)c2Oc2c1ccc(NCC(F)(F)F)c2S(=O)(=O)O [Compound 17, 5′-Carboxy-4,5-disulfo-N,N′-bis(2,2,2-trifluoroethyl)-rhodamine]	Dim cytoplasmatic stain with dots	Bright background staining visible.	without any significant changes in their emission	no significant change in the diffusion time	–	–
–	–	–	–	–	534	512	90	8	87000	512^b nm	534^b nm	–	COC(=O)CCN(C)C(=O)c1ccccc1-c1c2ccc(=NCC(F)(F)F)cc-2oc2cc(NCC(F)(F)F)ccc12 [Compound 44-Me]	–	Cytoplasmatic stain visible.	–	–	–	–
